Measured values published in article PMC3929971 (Chemistry (Weinheim an der Bergstrasse, Germany), 2013).

Target: T1, Mtb MraY (phospho-MurNAc-pentapeptide translocase, translocase I) (Mycobacterium tuberculosis, UniProt P9WMW7)
T1 sequence (P9WMW7 1-359): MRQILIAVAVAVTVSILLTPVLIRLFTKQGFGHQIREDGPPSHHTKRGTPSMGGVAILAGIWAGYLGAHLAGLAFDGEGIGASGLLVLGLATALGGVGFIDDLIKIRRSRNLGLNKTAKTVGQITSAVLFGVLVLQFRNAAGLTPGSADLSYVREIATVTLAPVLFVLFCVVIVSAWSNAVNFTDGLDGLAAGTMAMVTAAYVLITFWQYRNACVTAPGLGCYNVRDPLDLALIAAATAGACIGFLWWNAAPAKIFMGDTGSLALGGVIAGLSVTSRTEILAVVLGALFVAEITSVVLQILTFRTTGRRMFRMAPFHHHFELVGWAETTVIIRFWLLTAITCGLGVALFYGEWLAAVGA
Test: MraY enzyme inhibition
Format: biochemical

## CO[C@H]1[C@@H](O)[C@H](n2ccc(=O)[nH]c2=O)O[C@@H]1[C@@H](O[C@H]1OC(C(=O)N[C@H]2CCCCNC2=O)=C[C@H](O)[C@@H]1O)C(N)=O [compound 1, Capuramycin]
  IC50: 18 nM
